From patent US20250325534A1, “MICROBIOCIDAL TETRAHYDROISOQUINOLINE DERIVATIVES” (SYNGENTA CROP PROTECTION AG, priority 2021, published 2025)

Columns and labels:
[1] = system: Alternaria solani; experiment: Alternaria solani / tomato / leaf disc (early blight); format: in vivo; settings: foliar, inoculated 2 days after application, vs untreated control
[2] = system: Botryotinia fuckeliana; experiment: Botryotinia fuckeliana (Botrytis cinerea) / liquid culture (gray mould); format: cell-based; settings: 72 h, growth inhibition photometrically 3-4 days after application, read-out: control of Botryotinia fuckeliana
Protocol: Example B2: Botryotinia Fuckeliana (Botrytis cinerea)/Liquid Culture (Gray Mould) Conidia of the fungus from cryogenic storage are directly mixed into a nutrient broth (Vogels broth). After placing a DMSO solution of test compound into a microtiter plate (96-well format), the nutrient broth containing the fungal spores is added. The test plates are incubated at 24° C. and the inhibition of growth is determined photometrically 3-4 days after application.

[3] = system: Glomerella lagenarium; experiment: Glomerella lagenarium (Colletotrichum lagenarium) / liquid culture (anthracnose); format: cell-based; settings: Colletotrichum orbiculare, 72 h, photometrically 3-4 days after application, read-out: control of Glomerella lagenarium
Procedure, shortened: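 Conidia in potato dextrose broth added to test compound delivered as DMSO solution in microtiter plates; incubation at 24° C. Growth inhibition read photometrically 3-4 days after application.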

[4] = system: Blumeria graminis f. sp. tritici; experiment: Blumeria graminis f. sp. tritici / wheat / leaf disc preventative (powdery mildew); format: in vivo; settings: foliar, inoculated 1 day after application
Protocol: Example B7: Blumeria graminis f. Sp. Tritici (Erysiphe graminis f. Sp. Tritici)/Wheat/Leaf Disc Preventative (Powdery Mildew on Wheat) Wheat leaf segments cv. Kanzler are placed on agar in a multiwell plate (24-well format) and sprayed with the formulated test compound diluted in water. The leaf disks are inoculated by shaking powdery mildew infected plants above the test plates 1 day after application. The inoculated leaf disks are incubated at 20° C. and 60% relative humidity under a light regime of 24 h darkness followed by 12 h light/12 h darkness in a climate chamber and the activity of a compound is assessed as percent disease control compared to untreated when an appropriate level of disease damage appears on untreated check leaf segments (6-8 days after application).

[5] = system: Phaeosphaeria nodorum; experiment: Phaeosphaeria nodorum (Septoria nodorum) / wheat / leaf disc preventative (glume blotch); format: in vivo; settings: Parastagonospora nodorum, foliar, inoculated 2 days after application
Protocol: Example B9: Phaeosphaeria nodorum (Septoria nodorum)/Wheat/Leaf Disc Preventative (Glume Blotch) Wheat leaf segments cv. Kanzler are placed on agar in a multiwell plate (24-well format) and sprayed with the formulated test compound diluted in water. The leaf disks are inoculated with a spore suspension of the fungus 2 days after application. The inoculated test leaf disks are incubated at 20° C. and 75% relative humidity under a light regime of 12 h light/12 h darkness in a climate cabinet and the activity of a compound is assessed as percent disease control compared to untreated when an appropriate level of disease damage appears in untreated check leaf disks (5-7 days after application).

[6] = system: Monographella nivalis; experiment: Monographella nivalis (Microdochium nivale) / liquid culture (foot rot cereals); format: cell-based; settings: 96 h, photometrically 4-5 days after application, read-out: control of Monographella nivalis
Procedure, shortened: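 Microdochium nivale conidia in potato dextrose broth were added to test compound in DMSO and incubated at 24° C. Growth inhibition was measured photometrically 4-5 days after application.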

[7] = system: Mycosphaerella arachidis; experiment: Mycosphaerella arachidis (Cercospora arachidicola) / liquid culture (early leaf spot); format: cell-based; settings: 96 h, photometrically 4-5 days after application, read-out: control of Mycosphaerella arachidis
Procedure, shortened: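 Cryostored M. arachidis conidia in potato dextrose broth were added to compound applied as DMSO solution. Incubated at 24 °C; growth inhibition measured photometrically 4-5 days after application.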

[8] = system: Mycosphaerella graminicola; experiment: Mycosphaerella graminicola (Septoria tritici) / liquid culture (Septoria blotch); format: cell-based; settings: Zymoseptoria tritici, 96 h, photometrically 4-5 days after application, read-out: control of Mycosphaerella graminicola
Procedure, shortened: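 Conidia from cryogenic storage mixed into potato dextrose broth, added to test compound in DMSO. Plates incubated at 24° C; growth inhibition read photometrically 4-5 days after application.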

[9] = system: Pyrenophora teres; experiment: Pyrenophora teres / barley / leaf disc preventative (net blotch); format: in vivo; settings: foliar, inoculated 2 days after application
Protocol: Example B16: Pyrenophora teres/Barley/Leaf Disc Preventative (Net Blotch) Barley leaf segments cv. Hasso are placed on agar in a multiwell plate (24-well format) and sprayed with the formulated test compound diluted in water. The leaf segments are inoculated with a spore suspension of the fungus 2 days after application. The inoculated leaf segments are incubated at 20° C. and 65% relative humidity under a light regime of 12 h light/12 h darkness in a climate cabinet and the activity of a compound is assessed as disease control compared to untreated when an appropriate level of disease damage appears in untreated check leaf segments (5-7 days after application).

CC1c2ccccc2C(C)(c2cnn(C)c2F)CN1C(=O)c1cc(-c2ccc(F)cc2F)on1 (stereo not drawn) [Compound P-11, [5-(2,4-difluorophenyl)isoxazol-3-yl]-[4-(5-fluoro-1-methyl-pyrazol-4-yl)-1,4-dimethyl-1,3-dihydroisoquinolin-2-yl]methanone]
≥ 80%: pest or weed control at 200 ppm [1] | inhibition of growth at 20 ppm [2] | inhibition of growth at 20 ppm [3] | pest or weed control at 200 ppm [4] | pest or weed control at 200 ppm [5] | inhibition of growth at 20 ppm [6] | inhibition of growth at 20 ppm [7] | inhibition of growth at 20 ppm [8]

Cn1ncc(C2CN(C(=O)c3cc(-c4ccc(F)cc4F)on3)Cc3ccccc32)c1Br (stereo not drawn) [Compound P-45, [4-(5-bromo-1-methyl-pyrazol-4-yl)-3,4-dihydro-1H-isoquinolin-2-yl]-[5-(2,4-difluorophenyl)isoxazol-3-yl]methanone]
≥ 80%: pest or weed control at 200 ppm [1] | inhibition of growth at 20 ppm [2] | inhibition of growth at 20 ppm [3] | pest or weed control at 200 ppm [5] | inhibition of growth at 20 ppm [6] | inhibition of growth at 20 ppm [7] | pest or weed control at 200 ppm [9] | inhibition of growth at 20 ppm [8]

COc1ccc2c(c1)CN(C(=O)c1cc(-c3ccc(F)cc3F)on1)CC2c1cnn(C)c1 (stereo not drawn) [Compound P-51, [5-(2,4-difluorophenyl)isoxazol-3-yl]-[7-methoxy-4-(1-methylpyrazol-4-yl)-3,4-dihydro-1H-isoquinolin-2-yl]methanone]
≥ 80%: pest or weed control at 200 ppm [1] | inhibition of growth at 20 ppm [3] | pest or weed control at 200 ppm [5] | inhibition of growth at 20 ppm [6] | inhibition of growth at 20 ppm [7] | pest or weed control at 200 ppm [9] | inhibition of growth at 20 ppm [8]

Cc1c(C2CN(C(=O)c3nnc(-c4ccc(F)cc4)s3)Cc3ccccc32)cnn1C (stereo not drawn) [Compound P-63, [4-(1,5-dimethylpyrazol-4-yl)-3,4-dihydro-1H-isoquinolin-2-yl]-[5-(4-fluorophenyl)-1,3,4-thiadiazol-2-yl]methanone]
≥ 80%: pest or weed control at 200 ppm [1] | inhibition of growth at 20 ppm [2] | inhibition of growth at 20 ppm [3] | pest or weed control at 200 ppm [4] | pest or weed control at 200 ppm [5] | inhibition of growth at 20 ppm [6] | inhibition of growth at 20 ppm [7] | pest or weed control at 200 ppm [9] | inhibition of growth at 20 ppm [8]

Cc1c(C2CN(C(=O)c3cc(-c4ccccc4F)no3)Cc3ccccc32)cnn1C (stereo not drawn) [Compound P-110, [4-(1,5-dimethylpyrazol-4-yl)-3,4-dihydro-1H-isoquinolin-2-yl]-[3-(2-fluorophenyl)isoxazol-5-yl]methanone]
≥ 80%: pest or weed control at 200 ppm [1] | inhibition of growth at 20 ppm [2] | inhibition of growth at 20 ppm [3] | pest or weed control at 200 ppm [5] | inhibition of growth at 20 ppm [6] | inhibition of growth at 20 ppm [7] | pest or weed control at 200 ppm [9] | inhibition of growth at 20 ppm [8]

Cc1c(C2CN(C(=O)c3cc(-c4ccc(F)cc4)on3)Cc3ccccc32)cnn1C (stereo not drawn) [Compound P-120, [4-(1,5-dimethylpyrazol-4-yl)-3,4-dihydro-1H-isoquinolin-2-yl]-[5-(4-fluorophenyl)isoxazol-3-yl]methanone]
≥ 80%: pest or weed control at 200 ppm [1] | inhibition of growth at 20 ppm [2] | inhibition of growth at 20 ppm [3] | pest or weed control at 200 ppm [5] | inhibition of growth at 20 ppm [6] | inhibition of growth at 20 ppm [7] | pest or weed control at 200 ppm [9] | inhibition of growth at 20 ppm [8]

CC1c2ccccc2C(c2cnn(C)c2)CN1C(=O)c1cc(-c2ccc(F)cc2F)on1 (stereo not drawn) [Compound P-141, [5-(2,4-difluorophenyl)isoxazol-3-yl]-[1-methyl-4-(1-methylpyrazol-4-yl)-3,4-dihydro-1H-isoquinolin-2-yl]methanone]
≥ 80%: pest or weed control at 200 ppm [1] | inhibition of growth at 20 ppm [2] | inhibition of growth at 20 ppm [3] | pest or weed control at 200 ppm [4] | pest or weed control at 200 ppm [5] | inhibition of growth at 20 ppm [6] | inhibition of growth at 20 ppm [7] | pest or weed control at 200 ppm [9] | inhibition of growth at 20 ppm [8]
